Data as given in patent US20170014432A1, “COMPOSITIONS AND METHODS FOR REDUCING CHRONIC LOW-LEVEL INFLAMMATION” (priority 2014, published 2017).

Test system: delta-5-desaturase
Experiment: Two-week feeding study, AA/DGLA ratio in plasma
Type: in vivo, mice
Conditions: for Average % decrease in AA/DGLA Ratio in Plasma: mice, 36.7 mg/day sesamol palmitate in safflower oil by gavage, low-fat diet
Protocol: To determine the ability of a sesamol derivative of the present invention to inhibit the formation of arachidonic acid, a two-week feeding study was done with two groups of mice with 8 mice in each group. We mixed 4.4 g of sesamol palmitate into 60 ml of safflower oil. This provided a concentration of sesamol palmitate of 73.3 mg/ml. The mice in the sesamol group received 500 μl each day (36.7 mg) via gavage of the sesamol palmitate compound in safflower oil whereas the control group received 500 μl of the safflower oil control. Both groups were maintained on a low-fat diet. 200 μl of blood was drawn at three time points (0, 1, and 2 weeks) for analysis of the fatty acid composition in the plasma.
Since the sesamol derivative, sesamol palmitate, inhibits the enzyme delta-5-desaturase that converts dihomo gamma linolenic acid (DGLA) to arachidonic acid (AA), we choose to look at the decrease in the AA/DGLA ratio as an indication of efficacy of sesamol palmitate in inhibiting the key enzyme. The percent difference between the AA/DGLA ratio in each […] was determined at the starting point and at days 7 and 14. The percent differences in the AA/DGLA per each rat in the active and placebo groups were then averaged.

SMILES: CCCCCCCCCCCCCCCC(=O)Oc1ccc2c(c1)OCO2 [Sesamol Palmitate]
- Average % decrease in AA/DGLA Ratio in Plasma (Days 0-7): −25.4%
- Average % decrease in AA/DGLA Ratio in Plasma (Days 0-14): −23.4%
- Average decrease in the AA/DGLA ratio relative to placebo group (active group versus placebo group): approximately double
